What all share (type): cell-based
One data set has as its system Raw 264.7 cell. Briefly: WST (water-soluble tetrazolium) analysis, relative cell viability. The conditions noted are these: 100 ng/mL LPS and compounds 24 hours. The method, then:
Relative cell viability of Compound 2a to 2o prepared in Examples 2 was measured by WST (water-soluble tetrazolium) analysis.
Raw 264.7 cell was seeded in transparent 96-well plate and maintained for 1 day.
Media was aspirated, and each well was washed with serum free DMEM for twice. Each well was refilled with serum-free DMEM. Then, 100 ng/mL LPS and compounds were treated afterward and cultured for 24 hours. After the incubation, the supernatant culture media was transferred to new 96-well plate.
Immediately after transferring media, cell-seeded wells were refilled with 100 μL of 10% FBS and 1% antibiotic-antimycotic containing DMEM. Then, 10 μL of Ez-cytox WST assay reagent was used to treat each well, following the manufacturer's protocol.
After incubating for 20 min in a 5% CO2 incubator at 37° C. with humidified atmosphere, absorbance was read at 450 nm.
Blank values were obtained from the well only treated with 10% FBS and 1% antibiotic-antimycotic containing DMEM.

Data set [1] has as its system NO release in Raw264.7 cells. Nature of the data set: Griess assay, inhibition of nitric oxide release. As to conditions: for NO Inhibition rate (%): 100 ng/mL LPS and compounds 24 hours, compared with control group; for inhibitory effect on NO release, in words, compared with Compound 1d: 100 ng/mL LPS, 24 hours. The procedure: Thus, the Griess assay was used to measure nitric oxide secretion for inflammation inhibition in Raw264.7 cells.
Raw 264.7 macrophage cell was cultured in Dulbecco Modified Eagle Medium (DMEM) with 10% (v/v) fetal bovine serum (FBS) and 1% (v/v) antibiotic-anti mycotic solution.
Cell was maintained in a 100 mm cell culture dish under cell culture conditions (5% CO2 incubator at 37° C. with humidified atmosphere).
Griess assay reagent was generated prior to the assay with the following contents listed below: N-(1-naphthyl) ethylenediamine dihydrochloride, 0.1% (m/v); sulfanilamide, 1% (m/v); phosphoric acid (85%); 5% (v/v) in deionized water.
Raw 264.7 cell was seeded in transparent 96-well plate and maintained for 1 day. Media was aspirated, and each well was washed with serum free DMEM for twice. Each well was refilled with serum-free DMEM.
Then 100 ng/mL LPS and compounds were treated afterward and cultured for 24 hours. After the incubation, the supernatant culture media was transferred to new 96-well plate and mixed with 50 μL of Griess assay reagent.
Media-reagent mixture was incubated at room temperature for several minutes. Absorbance was read at 548 nm. Four wells each were used for the control experiment, LPS and DMSO (without any compounds) treated well, and DMSO-only treated well. Blank values were measured.
Blank values were measured by mixing 50 μL of Griess assay reagent with […] and 1% antibiotic-antimycotic containing DMEM.
As for the compounds in which the double bond of the tetrahydropyridazine ring in Compound 1d is moved or eliminated, the inhibition rate of NO release was measured in the same manner as in Test Example 2.
The inhibition rate of NO release for Compounds 2a to 2o prepared in Example 2 was tested in order to confirm the anti-inflammatory effect for the above compounds.
(Nitrite, measured by Griess reagent, commonly stands in for NO production.)

For data set [2], the system named is TNF-α secretion in Raw264.7 cell. Briefly: ELISA of secreted TNF-α. As to conditions: Mus musculus, LPS 100 ng/mL, compounds 10 μM, read-out: TNF-α Inhibition Rate (%). The procedure: Thus, in order to additionally confirm the inflammation inhibitory effects of Compounds 2f to 2l, the inhibition rate of TNF-α secretion was quantitatively measured by ELISA.
Cells were treated with each Compound 1d, or 2f to 2l, and LPS for 24 hours, followed by ELISA for TNF-α present in the culture solution.
In order to measure the amount of secreted TNF-α, Raw264.7 cell was seeded in transparent 96-well plate and maintained for 1 day. Media was aspirated after 1 day and replaced to serum-free DMEM with 1% (v/v) antibiotic-antimycotic solution. LPS and compounds were treated in a final concentration of 100 ng/mL and 10 μM.
Standard curve was plotted by the dose-dependent treatment of the control TNF-α protein provided with the ELISA kit. Blank value was measured by adding solutions without TNF-α substrate.
The TNF-α secretion inhibition rate of Compounds 1d, and 2f to 2l was confirmed, when compared with control groups.

Molecules are shown by their SMILES.

Data on 21 compounds can be found in patent US10160766B1, “Benzopyranyl tetracycle compound and pharmaceutical composition having excellent anti-inflammatory effect comprising the same” (Spark Biopharma, Inc., priority 2017, dated 2018).

Take `CC1(C)Oc2cc(O)ccc2C2C1=CCn1c(=O)n(Cc3ccccc3)c(=O)n12` (stereo not shown) [Compound 2b]: in the data set on Raw 264.7 cell, the “Relative Cell Viability (%)” value is given as 106%. For the same compound, the “NO Inhibition rate (%)” value in data set [1] was found to be 70%.

In the case of `CC(=O)N1CCC2(CC1)Oc1cc(O)ccc1C1C2=CCn2c(=O)n(-c3ccccc3)c(=O)n21` (stereo not shown) [Compound 1j], in data set [1], the “NO Inhibition rate (%)” value amounted to 36% and the “inhibitory effect on NO release, in words, compared with Compound 1d” value is given as “significantly reduced”.

With `Cn1c(=O)n2n(c1=O)C1C(=CC2)C(C)(C)Oc2cc(O)ccc21` (stereo not shown) [Compound 2a], in the data set with Raw 264.7 cell, the “Relative Cell Viability (%)” value is on record as 114%. In data set [1], the “NO Inhibition rate (%)” value came out at 45%.

For the compound `COc1ccc2c(c1)C1C(=CCn3c(=O)n(-c4ccccc4)c(=O)n31)C(C)(C)O2` (stereo not shown) [Compound 1f], the “NO Inhibition rate (%)” value in data set [1] was 55%.

As for `COc1cc2c(cc1OC)C1C(=CCn3c(=O)n(-c4ccccc4)c(=O)n31)C(C)(C)O2` (stereo not shown) [Compound 1g], in data set [1], the “NO Inhibition rate (%)” value was found to be 44%.

As to `COc1ccc2c(c1O)OC(C)(C)C1=CCn3c(=O)n(-c4ccccc4)c(=O)n3C12` (stereo not shown) [Compound 1h], the “NO Inhibition rate (%)” value in data set [1] turned out to be 26%.

As for `CC1(C)Oc2cc(F)ccc2C2C1=CCn1c(=O)n(-c3ccccc3)c(=O)n12` (stereo not shown) [Compound 1c], the “NO Inhibition rate (%)” value in data set [1] was found to be 79%.

On to `COc1ccc2c(c1)OC(C)(C)C1=CCn3c(=O)n(-c4ccccc4)c(=O)n3C12` (stereo not shown) [Compound 1e], for which the “NO Inhibition rate (%)” value in data set [1] is reported as 44%.

On to `CC1(C)Oc2cc(O)ccc2C2C1=CCn1c(=O)n(-c3ccc(C(F)(F)F)cc3)c(=O)n12` (stereo not shown) [Compound 2m], for which the “Relative Cell Viability (%)” value in the data set with Raw 264.7 cell came out at 106%. The “NO Inhibition rate (%)” value in data set [1] amounted to 85%.

A word on the inhibition: it is the relative decrease from the control value, in per cent. Consider `CC1(C)Oc2cc(O)ccc2C2C1=CCn1c(=O)n(-c3ccc(F)cc3)c(=O)n12` (stereo not shown) [Compound 2h], for which, in data set [2], the inhibition at 10 µM stood at 44%. Moreover, the “Relative Cell Viability (%)” value in the data set with Raw 264.7 cell was found to be 109%. Besides, the “NO Inhibition rate (%)” value in data set [1] stood at 87%.

Turning to `CC1(C)Oc2cc(O)ccc2C2C1=CCn1c(=O)n(-c3ccc(C(C)(C)C)cc3)c(=O)n12` (stereo not shown) [Compound 2n], the “Relative Cell Viability (%)” value in the data set on Raw 264.7 cell is recorded as 105%. Further, the “NO Inhibition rate (%)” value in data set [1] turned out to be 99%.

Consider `CNc1ccc2c(c1)OC(C)(C)C1=CCn3c(=O)n(-c4ccccc4)c(=O)n3C12` (stereo not shown) [Compound 1b], for which, in data set [1], the “NO Inhibition rate (%)” value is reported as 52%.

Turning to `COc1ccc(-n2c(=O)n3n(c2=O)C2C(=CC3)C(C)(C)Oc3cc(O)ccc32)cc1` (stereo not shown) [Compound 2g], in data set [2], the inhibition at 10 µM is 44%. Also, the “Relative Cell Viability (%)” value in the data set on Raw 264.7 cell turned out to be 127%. The “NO Inhibition rate (%)” value in data set [1] amounted to 89%.

In the case of `Cc1ccc(-n2c(=O)n3n(c2=O)C2C(=CC3)C(C)(C)Oc3cc(O)ccc32)cc1` (stereo not shown) [Compound 2i], the inhibition at 10 µM in data set [2] came out at 45%. In addition, the “Relative Cell Viability (%)” value with Raw 264.7 cell came to 130%. The “NO Inhibition rate (%)” value in data set [1] is listed as 94%.

On to `CC1(C)Oc2cc(O)ccc2C2C1=CCn1c(=O)n(C3CCCCC3)c(=O)n12` (stereo not shown) [Compound 2c], for which the “Relative Cell Viability (%)” value in the data set with Raw 264.7 cell worked out at 117%. For the same compound, in data set [1], the “NO Inhibition rate (%)” value was 63%.

`CCCN1CCC2(CC1)Oc1cc(O)ccc1C1C2=CCn2c(=O)n(-c3ccccc3)c(=O)n21` (stereo not shown) [Compound 1i]: in data set [1], the “NO Inhibition rate (%)” value stood at 47% and the “inhibitory effect on NO release, in words, compared with Compound 1d” value is “significantly reduced”.

In the case of `CC1(C)Oc2ccccc2C2C1=CCn1c(=O)n(-c3ccccc3)c(=O)n12` (stereo not shown) [Compound 1a], in data set [1], the “NO Inhibition rate (%)” value is listed as 83%.

For `COc1ccccc1-n1c(=O)n2n(c1=O)C1C(=CC2)C(C)(C)Oc2cc(O)ccc21` (stereo not shown) [Compound 2e], the “Relative Cell Viability (%)” value with Raw 264.7 cell turned out to be 115%.

For `COc1cccc(-n2c(=O)n3n(c2=O)C2C(=CC3)C(C)(C)Oc3cc(O)ccc32)c1` (stereo not shown) [Compound 2f], the inhibition at 10 µM in data set [2] is 38%. The “Relative Cell Viability (%)” value with Raw 264.7 cell was found to be 118%. In addition, the “NO Inhibition rate (%)” value in data set [1] stood at 96%.

For the compound `CCCCc1ccc(-n2c(=O)n3n(c2=O)C2C(=CC3)C(C)(C)Oc3cc(O)ccc32)cc1` (stereo not shown) [Compound 2o], in the data set on Raw 264.7 cell, the “Relative Cell Viability (%)” value is 50%. Besides, in data set [1], the “NO Inhibition rate (%)” value is listed as 99%.

`CC1(C)Oc2cc(O)ccc2C2C1=CCn1c(=O)n(-c3ccccc3I)c(=O)n12` (stereo not shown) [Compound 2d]: in the data set on Raw 264.7 cell, the “Relative Cell Viability (%)” value was determined as 109%.
